{"source": "paper PMC9225715", "about": "“Development of PD3 and PD3-B for PDEδ inhibition to modulate KRAS activity” (Journal of Enzyme Inhibition and Medicinal Chemistry, 2022)", "target": "T1, PDEδ (Homo sapiens, UniProt O43924)", "T1 construct": "made in house; host or cells: E. coli BL21(DE3)", "T1 sequence (O43924 whole entry)": "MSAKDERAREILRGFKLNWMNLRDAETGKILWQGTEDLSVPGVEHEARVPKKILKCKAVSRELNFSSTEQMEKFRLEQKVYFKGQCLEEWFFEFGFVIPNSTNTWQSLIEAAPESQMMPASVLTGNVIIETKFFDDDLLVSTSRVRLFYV", "test": "Affinity pull-down experiment with bacterial lysate overexpressing PDEδ", "assay_type": "binding", "settings": "100 µM PD3-B on NeutrAvidin resin, bacterial lysate 150 µg, DMSO control", "description": "We subsequently investigated whether PD3-B (5) specifically identifies PDEδ in the complex proteome of bacterial lysate using an affinity pull-down experiment (Figure 5). 100 µM PD3-B (5) was initially incubated with NeutrAvidin resin before incubation with bacterial lysate (150 µg) overexpressing PDEδ. For elution of the bound proteins, an elution buffer (2% SDS in PBS) was added to the resin and gently eluted at room temperature due to the noncovalent interaction between PD3-B (5) and the target protein PDEδ. The eluted samples were subjected to SDS–PAGE (18% polyacrylamide gel), and then the gels were stained with colloidal Coomassie brilliant blue solution to visualise the bound proteins. DMSO was used as a negative control. […] In addition, the intensity of the PDEδ band increased depending on the concentration of PD3-B (5) (Figure 5(B)).\nFigure 5. Affinity pull-down assay of bacterial lysate (PDEδ overexpressed) with PD3-B. NeutrAvidin resin was incubated with PD3-B (100 μM) followed by bacterial lysate (150 μg) in PBS buffer. Then, bound proteins were eluted by adding elution buffer (2% SDS in PBS) at room temperature. The eluted samples were subjected to SDS–PAGE (18% polyacrylamide gel). The gels were stained with colloidal Coomassie brilliant blue solution. (A) Colloidal CBB staining of SDS–PAGE gel. Lys: bacterial lysate, FT: flow through in step 1. […]"}
{"smiles": "Cc1ccc(-c2nc3ccccc3c3c(-c4cn(CCOCCOCCOCCNC(=O)CCCC[C@H]5SC[C@@H]6NC(=O)N[C@@H]65)nn4)c4ccccn4c23)cc1", "note": "[PD3-B, 5-((3aS,4R,6aR)-2-oxohexahydro-1H-thieno[3,4-d]imidazol-4-yl)-N-(2–(2–(2-(2-(4–(6-(p-tolyl)indolizino[3,2-c]quinolin-12-yl)-1H-1,2,3-triazol-1-yl)ethoxy)ethoxy)ethoxy)ethyl)pentanamide]", "values": [{"measurement": "Pull down of PDEδ", "result": "PDEδ (20 kDa) was only detected in PD3-B (5)"}]}
